Source: US12528767B2, “HDAC6 inhibitors and uses thereof” (Eikonizo Therapeutics, Inc., priority 2019, dated 2026)
Where two headings read alike, the source gives them in different places.

What was measured:
[1] = Metabolic stability in liver microsomes: Mouse BL6; assay type: in vitro ADME; details: 1 μM compound, 0.3 mg/mL protein, NADPH, 37° C., read-out: Mouse BL6 Liver Microsome Stability Half-life
[2] = system: histone H3 acetylation (acH3K9) in undifferentiated SH-SY5Y cells; assay: Histone H3 acetylation in cells (Western immunoblot); assay type: cell-based; details: Homo sapiens, 4 hours, acetyl histone H3K9/histone H3 ratio
Experimental: (§1) Compound EC50 Determination for Tubulin- and Histone H3 Acetylation in Cells
(§2) Estimation of the EC50 for exemplary compounds to alter target protein acetylation in undifferentiated SH-SY5Y cells was performed using standard Western immunoblotting methods. […] SH-SY5Y cells were grown to 90% confluency on sterile cell growth plates. 10 mM compound stocks prepared in DMSO and two-fold serial dilutions were prepared from the stock and applied to cells to achieve a 12-point concentration range in cell media from an upper limit of 10 μM to a lower limit of DMSO [zero compound].
(§3) Cells were incubated under normal growth conditions (37° C., 5% CO2) in the presence of compound for 4 hours, then media was aspirated and cells were rinsed two times with 1×DPBS with calcium and magnesium warmed to 37° C. Cells were frozen directly on the plates on a bed of dry ice for 5 min, then stored at −80° C. until protein extraction.
(§4) Protein extraction was performed in RIPA buffer (50 mM Tris-HCL pH 8.0, 150 mM NaCl, 0.5% sodium deoxycholate, 0.1% sodium dodecyl sulfate, 1% NP-40) supplemented with Pierce protease inhibitor mini tables (Thermofisher cat #A32953) exactly as described by the manufacturer. After thawing the plate on a bed of wet ice for 10 minutes, lysis buffer was added to each well (e.g. 100 μL per well of a 24-well plate) and cells scraped from the bottom of each well. Lysates were then sonicated over ice (40% power, 30 pulses of 1 second on, 2 seconds off), centrifuged at 16,000 g for 10 min at 4° C., and the clarified supernatant saved. Protein concentration was determined by BCA assay and at least 3 μg prepared per lane by combining lysate supernatant aliquot with 1/3 total volume of 3× gel loading buffer containing DTT (NEB Cat. #B7703S), heating for 5 minutes at 95° C., briefly centrifuging and then loading on an SDS-PAGE gel.
(§5) Proteins were resolved on a 4-20% Tris-Glycine gel and transferred to PVDF membrane using an iBlot2 dry transfer system. The membrane was then blocked for at least 30 minutes at room temperature in TBST containing 5% milk or 5% bovine serum albumin, then incubated overnight at 4° C. with a single primary antibody from the following table:
(§6) Following primary antibody incubation, membranes were washed, incubated in secondary antibody, washed and incubated in ECL prime western blotting detection reagent (Amersham #RPN223) with membrane exposure and ECL signal capture in a LI-COR Odyssey Imaging system. […] Subsequent densitometry of immunoreactive bands was performed using the ImageStudio software and Microsoft Excel resulting in the following ratios: acetylTubulin/Tubulin and acetyl histone H3K9/histone H3. Raw ratios were uploaded to GraphPad Prism v7.0 with EC50 values modeled using the variable slope equation for log-transformed data [log(agonist) vs response in Prism].

[3] = Plasma protein binding assay (Rapid Equilibrium Dialysis): mouse; assay type: in vitro ADME; parameters: dose or concentration left out as unconfirmed; details: pH 7.4, RED, 5 hours at 37° C.
Full length Human HDAC8 = molecular target: T1, Full length Human HDAC8 (Homo sapiens, UniProt Q9BY41)
T1 sequence (Q9BY41 1-377): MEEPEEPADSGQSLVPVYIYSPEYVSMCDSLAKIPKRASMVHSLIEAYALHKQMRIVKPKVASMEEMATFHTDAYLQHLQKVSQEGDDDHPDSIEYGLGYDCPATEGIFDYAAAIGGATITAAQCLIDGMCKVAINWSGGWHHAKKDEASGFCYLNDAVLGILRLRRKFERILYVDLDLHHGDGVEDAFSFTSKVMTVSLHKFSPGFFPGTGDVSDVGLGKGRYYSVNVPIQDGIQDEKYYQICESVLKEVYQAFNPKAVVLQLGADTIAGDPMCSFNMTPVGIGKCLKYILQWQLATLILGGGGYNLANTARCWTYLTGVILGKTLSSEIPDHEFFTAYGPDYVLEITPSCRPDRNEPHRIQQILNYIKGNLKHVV

[4] = Plasma stability assay: mouse; assay type: in vitro ADME; details: 10 μM, 37° C.
Full length Human HDAC6 = molecular target: T2, Full length Human HDAC6 (Homo sapiens, UniProt Q9UBN7); details: for Selectivity (6 v 8) (fold): ratio of HDAC8 IC50/HDAC6 IC50
T2 sequence (Q9UBN7 1-1215): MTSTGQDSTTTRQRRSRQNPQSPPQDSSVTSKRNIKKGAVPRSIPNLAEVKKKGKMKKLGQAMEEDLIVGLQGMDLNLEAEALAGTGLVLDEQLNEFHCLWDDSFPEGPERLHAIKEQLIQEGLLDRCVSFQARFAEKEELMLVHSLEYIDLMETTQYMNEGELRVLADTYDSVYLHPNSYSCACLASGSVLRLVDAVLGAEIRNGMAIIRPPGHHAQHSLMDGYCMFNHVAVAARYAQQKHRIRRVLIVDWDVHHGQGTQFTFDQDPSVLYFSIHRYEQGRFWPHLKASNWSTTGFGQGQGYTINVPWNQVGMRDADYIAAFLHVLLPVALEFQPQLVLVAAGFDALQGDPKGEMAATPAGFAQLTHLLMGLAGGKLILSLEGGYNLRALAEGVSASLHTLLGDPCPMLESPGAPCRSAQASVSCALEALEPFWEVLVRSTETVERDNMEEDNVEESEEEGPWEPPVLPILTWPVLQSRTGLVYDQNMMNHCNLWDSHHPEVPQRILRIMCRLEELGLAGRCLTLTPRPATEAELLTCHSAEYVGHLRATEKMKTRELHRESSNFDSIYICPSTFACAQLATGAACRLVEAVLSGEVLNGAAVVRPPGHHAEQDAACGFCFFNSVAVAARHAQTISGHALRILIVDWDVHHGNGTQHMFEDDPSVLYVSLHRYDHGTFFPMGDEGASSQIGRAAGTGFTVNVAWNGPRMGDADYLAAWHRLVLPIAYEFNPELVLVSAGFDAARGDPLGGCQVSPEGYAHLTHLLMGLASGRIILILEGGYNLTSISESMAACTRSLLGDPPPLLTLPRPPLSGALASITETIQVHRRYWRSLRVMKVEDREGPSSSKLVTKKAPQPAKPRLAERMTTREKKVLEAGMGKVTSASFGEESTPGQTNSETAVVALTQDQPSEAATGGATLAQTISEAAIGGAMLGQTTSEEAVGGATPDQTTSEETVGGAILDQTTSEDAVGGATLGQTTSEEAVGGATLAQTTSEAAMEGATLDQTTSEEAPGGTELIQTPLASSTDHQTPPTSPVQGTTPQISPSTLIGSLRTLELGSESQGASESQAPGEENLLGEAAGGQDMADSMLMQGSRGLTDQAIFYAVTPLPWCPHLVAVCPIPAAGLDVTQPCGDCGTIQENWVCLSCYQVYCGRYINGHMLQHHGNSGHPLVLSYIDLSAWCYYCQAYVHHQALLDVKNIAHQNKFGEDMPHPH

[5] = In vivo assessment of brain penetration in mice (IV 1 mg/kg, plasma and brain levels); details: mouse, BL/6 mice
[6] = system: tubulin acetylation (acTubK40) in undifferentiated SH-SY5Y cells; assay: Tubulin acetylation in cells (Western immunoblot); assay type: cell-based; details: Homo sapiens, 4 hours, acetylTubulin/Tubulin ratio
Experimental: as §1, §2, §3, §4, §5, §6

in vitro [7] = details: human
[8] = Cell viability in primary rat dorsal root ganglia (DRG); assay type: cell-based
in vitro [9] = details: human; remark: listed apart in the source
Human HDAC7 aa 518-end = molecular target: T3, Human HDAC7 aa 518-end (Homo sapiens, UniProt Q8WUI4)
T3 sequence (Q8WUI4 518-952 limits assumed): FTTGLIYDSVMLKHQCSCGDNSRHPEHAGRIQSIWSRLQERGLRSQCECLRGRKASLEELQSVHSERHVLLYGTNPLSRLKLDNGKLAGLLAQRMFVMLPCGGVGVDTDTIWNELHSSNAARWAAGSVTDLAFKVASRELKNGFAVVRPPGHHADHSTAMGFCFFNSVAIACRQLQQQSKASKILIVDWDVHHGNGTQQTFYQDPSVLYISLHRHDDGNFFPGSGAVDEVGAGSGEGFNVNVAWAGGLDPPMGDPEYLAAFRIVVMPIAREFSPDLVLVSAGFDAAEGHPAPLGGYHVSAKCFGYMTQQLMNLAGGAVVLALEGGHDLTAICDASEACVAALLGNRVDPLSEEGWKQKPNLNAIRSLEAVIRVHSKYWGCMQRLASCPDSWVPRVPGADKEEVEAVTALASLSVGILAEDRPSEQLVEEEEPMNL

[10] = Metabolic stability in liver microsomes: Mouse CD1; assay type: in vitro ADME; details: 1 μM compound, 0.3 mg/mL protein, NADPH, 37° C., read-out: Mouse CD1 Liver Microsome Stability Half-life
Full length Human HDAC10 = molecular target: T4, Full length Human HDAC10 (Homo sapiens, UniProt Q969S8)
T4 sequence (Q969S8 1-669): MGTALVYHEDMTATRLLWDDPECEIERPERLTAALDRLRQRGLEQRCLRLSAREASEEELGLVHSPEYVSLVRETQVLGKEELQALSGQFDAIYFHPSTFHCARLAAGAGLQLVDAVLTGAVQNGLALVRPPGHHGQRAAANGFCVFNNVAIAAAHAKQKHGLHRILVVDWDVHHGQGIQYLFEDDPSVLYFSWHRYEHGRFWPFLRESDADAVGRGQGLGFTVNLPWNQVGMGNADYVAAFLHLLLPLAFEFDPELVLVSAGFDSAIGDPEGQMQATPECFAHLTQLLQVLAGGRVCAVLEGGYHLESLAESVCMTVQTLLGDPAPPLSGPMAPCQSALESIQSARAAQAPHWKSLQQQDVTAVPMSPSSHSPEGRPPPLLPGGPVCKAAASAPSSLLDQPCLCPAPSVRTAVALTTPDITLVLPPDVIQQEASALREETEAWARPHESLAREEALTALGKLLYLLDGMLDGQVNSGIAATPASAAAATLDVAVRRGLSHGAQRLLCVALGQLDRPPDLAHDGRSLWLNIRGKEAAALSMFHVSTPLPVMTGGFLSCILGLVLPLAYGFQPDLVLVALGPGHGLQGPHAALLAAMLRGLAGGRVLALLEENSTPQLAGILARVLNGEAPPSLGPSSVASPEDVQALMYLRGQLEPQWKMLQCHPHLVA

## O=C(NO)c1ccc(CN2CCc3c([nH]c4ccccc34)C2)c(F)c1 [compound 46]
[1]
  half-life at 1 μM: 78.5 min
[2]
  EC50: > 10000 nM
[3]
  fraction unbound at 5 h: 0.062
Full length Human HDAC8
  IC50: 100 to 1000 nM
[4]
  Mouse Plasma Stability (% Remaining at 120 min): 43.8%
Full length Human HDAC6
  IC50: 1 to 100 nM
Full length Human HDAC6; Table 1, number
  Selectivity (6 v 8) (fold): 51 fold
Full length Human HDAC6; Table 1, range class
  Selectivity (6 v 8) (fold): III (III: >10-100)
[5]; brain, 15 min, read-out: Mouse Brain Conc (μM) at 15 min
  concentration at 15 min: 0.15 µM
[5]; brain, 60 min, read-out: Mouse Brain Conc (μM) at 60 min
  concentration at 60 min: 0.03 µM
[5]; plasma, 15 min, read-out: Mouse Plasma Conc (μM) at 15 min
  concentration at 15 min: 0.21 µM
[5]; plasma, 60 min, read-out: Mouse Plasma Conc (μM) at 60 min
  concentration at 60 min: 0.05 µM
[5]; brain and plasma, brain:plasma, 15 min, read-out: Mouse B:P at 15 min
  Kp at 15 min: 0.72
[5]; brain and plasma, brain:plasma, 60 min, read-out: Mouse B:P at 60 min
  Kp at 60 min: 0.6
[6]
  EC50: 100 nM

## O=C(CCCCCCC(=O)Nc1ccccc1)NO [Vorinostat]
In vitro [7]
  viability at 4 h, 30 µM: 117 ± 7.5%
[8]
  CC50 at 72 h: 390 nM
In vitro [9]
  viability at 48 h, 30 µM: 40.3 ± 1.8%

## O=C(NO)c1cc(F)c2c(c1)CN(CC13CC4CC(CC(C4)C1)C3)C2 [compound 33]
Human HDAC7 aa 518-end
  IC50: 1000 to 10000 nM
Full length Human HDAC8
  IC50: 1000 to 10000 nM
Full length Human HDAC8; read-out: In vitro enzymatic IC50, HDAC Paralog 8, Table 2
  IC50: 1000 to 10000 nM
Full length Human HDAC6
  IC50: 1 to 100 nM
Full length Human HDAC6; Table 1, number
  Selectivity (6 v 8) (fold): 291.4 fold
Full length Human HDAC6; Table 1, range class
  Selectivity (6 v 8) (fold): IV (IV: >100-1000)
Full length Human HDAC6; read-out: In vitro enzymatic IC50, HDAC Paralog 6, Table 2
  IC50: 1 to 100 nM
[10]
  half-life at 1 μM: 7.1 min
Full length Human HDAC10
  IC50: 10000 to 100000 nM
